# Experimental data: patent publication US20190091173A1, “METHOD OF […] BETWEEN […]” (ZOGENIX INTERNATIONAL LIMITED, priority 2017, published 2019)
# Experiments:
# [1] = system: convulsive seizures in subjects with Dravet syndrome; experiment: Study 1 (ZX008-1501/ZX008-1502), Phase 3, randomized, double-blind, placebo-controlled; format: in vivo, human; details: 0.2 mg/kg/day, end of T+M Period, SD 140.46, p=0.735
# Experimental: The first 119 subjects to be randomized in both identical studies combined were analyzed and reported as Study 1 (FIG. 1), covered by a Statistical Analysis Plan (SAP).
# Primary and key secondary endpoints in the Study 1 SAP were pre-determined. All patients were treated twice per day over a period of 14 weeks using an oral syringe to administer the formulation. The treatment period included a two-week titration period and a 12-week maintenance period.
# The initial results of Study 1 are outlined below. The randomized, double blind, placebo controlled, Phase 3 study enrolled 119 patients across sites in the United States, Canada, Europe and Australia. The median age of patients was 8 years, the mean age of patients was 9 years (range, 2-18 years) (FIG. 2).
# Patients were titrated to their target dose over two weeks, and then remained at that fixed dose for 12 weeks. The mean baseline convulsive seizure frequency across the study groups was approximately 40 seizures per month. 110 (92%) patients completed the study (85% 0.8 mg/kg/day; 100% 0.2 mg/kg/day; 93% placebo). […]
# The mean number of convulsive seizure free days, defined as a day for which diary data are available and no convulsive seizures have been reported, was determined for each treatment group during the Baseline and T+M Periods. […]
# [2] = system: seizures in patients with Dravet syndrome; details: long-term fenfluramine treatment; cited from earlier work
smiles,measurement,setting,value
"CCNC(C)Cc1cccc(C(F)(F)F)c1 (stereo not shown) [Fenfluramine, 3-trifluoromethyl-N-ethylamphetamine]",reduction from Baseline in non-convulsive seizures (all types) per 28 days,[1],9.7%
same,effect on types of seizures,[2],effectively reduced the incidence of all types of seizures
same,reduction in seizures,[2],75%
same,test subjects in seizure-free condition,[2],66.6%
